{
  "source": "paper PMC7589136",
  "about": "“The Human Digestive Tract Is Capable of Degrading Gluten from Birth” (International Journal of Molecular Sciences, 2020)",
  "key": {"[1]": {"assay": "Peptidase activity of desalted fecal protein extracts against 33-mer, 19-mer and 13-mer gliadin peptides (HPLC)", "type": "in vitro ADME, human", "settings": "for Degradation capacity of new-born fecal samples against peptide / Degradation of peptide by feces samples / Degradation of peptide by fecal protein extract / Degradation of peptide by meconium protein extract: 60 μM peptide, 37 °C; for Degradation capacity of new-born fecal samples against peptide: in some cases intermediate peptides observed; for Degradation of peptide by feces samples: up to 12 month-olds; for Degradation of peptide by fecal protein extract / Degradation of peptide by meconium protein extract: 0.8 mg/mL extract; for Degradation of peptide by fecal protein extract: HPLC UV 215 nm; for Degradation of peptide by meconium protein extract: reverse-phase HPLC, UV 215 nm", "method": "Step 1: Sample preparation: Fecal samples were homogenized by mechanical stirring (90 min) in 10 mM Tris-HCl, pH 7.5 (1:5 w/v) and centrifuged (3100× g, 30 min). The supernatant was re-centrifuged at 30,000× g for 20 min.\nStep 2: Ammonium sulphate fractionation: Each supernatant obtained from step 1 was precipitated with ammonium sulphate. The 80% ammonium sulphate precipitate (containing glutenase activity) was collected by centrifugation at 30,000× g, 20 min. The pellet was dissolved in 10 mM Tris-HCl (pH 7.5) and ammonium sulphate was eliminated by passing through a Sephadex G-25 (PD-10) column (GE Healthcare Live Sources, San Diego, CA USA) equilibrated with Tris-ClH (pH 5) in accordance with manufacturer’s indications.\nPeptides used in this paper were: 33-mer ([…]), 19-mer (LGQQQPFPPQQPYPQPQPF), and 13-mer (LGQQQPFPPQQPY) synthetized by Bionova Científica, S.L. (Madrid, Spain) with purification grade around 96%.\nWe assayed 33-mer, 19-mer, and 13-mer hydrolysis as described previously, with modifications. Briefly, reaction mixtures containing 0.8 mg/mL of desalted protein extract (see step 2.2), 33-, 19-, or 13-mer peptide (60 μM) were incubated at 37 °C for 60 min and then stopped by boiling at 100 °C. 10-µL of each filtered aliquot was subjected to reverse-phase HPLC. The elution phases consisted of (A) MilliQ H2O containing 0.1% trifluoroacetic acid (TFA) (v/v) and (B) acetonitrile and 0.1% TFA (v/v). The eluate was monitored by measuring UV absorbance at 215 nm. Negative controls included runs with proteins denatured by boiling for 15 min, or 33-, 19-, and 13-mer peptides assayed without protein extract."}, "[2]": {"test_system": "elastase 3B, elastase 2A, and carboxypeptidase A1", "settings": "cited from earlier work"}, "[3]": {"settings": "elastase 3B, elastase 2A, and carboxypeptidase A1 from human feces"}},
  "note": "Read-outs that look alike come from different tables or passages of the source. Ends that are not written are not given here.",
  "data": [
    {"sequence": "LGQQQPFPPQQPY [13-mer]", "values": [
      {"measurement": "Degradation capacity of new-born fecal samples against peptide", "setting": "[1]; 60 min, HPLC", "result": "total degradation"},
      {"measurement": "Degradation of peptide by feces samples", "setting": "[1]; 60 min, HPLC", "result": "able to degrade"},
      {"measurement": "Degradation of peptide by fecal protein extract", "setting": "[1]; volunteers >300 months old (the only group that did not degrade it completely), 60 min", "result": "not able to complete degrade"},
      {"measurement": "Hydrolysis of peptide by gastrointestinal proteases", "setting": "[2]; [3]", "result": "fully"}
    ]},
    {"sequence": "LGQQQPFPPQQPYPQPQPF [19-mer]", "values": [
      {"measurement": "Hydrolysis of peptide by gastrointestinal proteases", "setting": "[2]", "result": "fully"}
    ]},
    {"sequence": "LQLQPFPQPQLPYPQPQLPYPQPQLPYPQPQPF [33-mer]", "values": [
      {"measurement": "Hydrolytic activity of meconium samples against peptide", "setting": "[1]; all 21 meconium samples, HPLC", "result": "showed hydrolytic activity"},
      {"measurement": "Degradation of peptide by meconium protein extract", "setting": "[1]; desalted meconium protein extract of newborn volunteer 15, 60 min, intermediate peptides generated", "result": "only partially degraded"},
      {"measurement": "Degradation of peptide by meconium protein extract", "setting": "[1]; desalted meconium protein extracts of newborn volunteers 3 and 9, 60 min", "result": "completely degrade"},
      {"measurement": "Degradation capacity of new-born fecal samples against peptide", "setting": "[1]; 60 min, HPLC", "result": "total degradation"},
      {"measurement": "Degradation of peptide by feces samples", "setting": "[1]; 60 min, HPLC", "result": "able to degrade"},
      {"measurement": "Degradation of peptide by fecal protein extract", "setting": "[1]; volunteers 0–2 months old, 60 min", "result": "completely degrade"},
      {"measurement": "Degradation of peptide by fecal protein extract", "setting": "[1]; volunteers 2–6 months old, 60 min", "result": "completely degrade"},
      {"measurement": "Degradation of peptide by fecal protein extract", "setting": "[1]; volunteers over 48 months old, 1 h", "result": "unable to completely degrade"},
      {"measurement": "Hydrolysis of peptide by gastrointestinal proteases", "setting": "[2]; [3]", "result": "partially"}
    ]}
  ]
}
